In patent US20240141445A1, “NOVEL METHOD FOR POOLED INTRON TAGGING FOR REAL TIME DRUG SCREENING” (CeMM - Forschungszentrum für Molekulare Medizin GmbH, priority 2019, published 2024):

Test system: GFP-tagged proteins in HAP1 cells
Assay: GFP intron-tagged cell pool / arrayed clones, time-lapse imaging of protein levels and localization
Type: cell-based
Method: For the generation of lentiviral particles, HEK293T cells were transiently transfected with the intron-targeting library and packaging plasmids psPAX2, pMD2.G using PEI transfection. After 12 h the media was replaced with IMDM supplemented with 10% FBS and P/S. Viral supernatant was collected 48 h after transfection and stored at −80° C. HAP1 cells were transduced with virus and selected with puromycin for three days. Multiplicity of infection (MOI) was 0.2 and transduction was done at a coverage of 500×. After puromycin selection, cells were grown for one day in media without puromycin before being seeded for transfection (8 million cells per 15 cm dish, 48 million cells in total). One day after seeding, each dish was co-transfected with 20 μg pX330 expressing Cas9-BSD and the generic sgRNA and 10 μg EGFP donor plasmid with 90 μl Turbofection in 2.5 ml OptiMEM as described by the manufacturer. Transfection efficiency was approximately 10% as determined by a transfection done in parallel with pX330 Cas9-mCherry and the EGFP donor plasmid using the same ratio. The next day, cells were subjected to a transient selection using Blasticidin (10 μg/ml) for 24 h. After selection, cells were maintained in full media without Blasticidin and sorted five days after transfection by flow cytometry using a Sony Cell Sorter SH800ZD. 0.03% cells were GFP-positive and in total 24,300 of those GFP-positive cells were sorted and the cell population was expanded for 7 days before DNA was isolated to determine sgRNA abundance in the cell population.
To obtain clonal cell lines, cells were seeded at a concentration of 0.7 cells per well in 96-well cell culture plates. After 9 days of clonal expansion, 768 colonies were harvested using trypsin and cell suspensions were transferred in equal amounts to eight 96-well imaging plates (Perkin Elmer CellCarrier Ultra) and eight corresponding 96-well cell culture plates. After 24 h, cells on the imaging plates were imaged on a Perkin Elmer Opera Phenix High Content Screening System (5 fields of view per well, 63× water-immersion objective, confocal mode, excitation: 488 nm, […], 700 ms). Images were processed using Cell Profiler. To identify the intron-targeting sgRNAs expressed in imaged cells, multiplexed amplicon sequencing of the sgRNA regions was performed in the corresponding clones on the eight 96-well cell culture plates. Cells were lysed and cell lysates were used for PCR to amplify the sgRNA region in each clone using barcoded primers flanking the sgRNA region (36 different 5-mers added to the 5′end of the forward primer and 24 different 5-mers added to the 5′end of the reverse primer, 768 of all possible 864 combinations were used). PCR reactions were pooled and column purified before being send for sequencing by a commercial sequencing service. NGS reads were demultiplexed using Cutadapt (see Martin, M. EMBnet. journal, [S.I.], v. 17, n. 1, p. pp. 10-12, may 2011) and sgRNA read counts for each individual well were obtained using MAGeCK (see, Li (2014) Genome Biol 15, 554 (2014). For further analysis clones were excluded, for which either no cells in any of the 5 fields of view that were imaged were observed, no sequencing reads for the corresponding well were observed or for which polyclonal cell populations as determined by imaging or detection of multiple sgRNAs per well were observed. Using that strategy, images of 335 clones were obtained for which the expressed intron-targeting sgRNA corresponding to the tagged protein could be identified.
Live cell imaging was performed on a PerkinElmer Opera Phenix microscope with excitation laser 488 nm, and emission filter 500-550 nm, 700 ms.
Identification of the expressed sgRNAs by in situ sequencing was performed by following and modifying published protocols, see, e.g., Feldman (2019) loc. cit; Ke (2013) Nat Methods 10, 857-60; and Larsson (2010) Nat Methods 7, 395-7. […]

[1] = clonal cell line, 1 μM (FIG. 10)

Row | SMILES | PADI1 protein level (1 μM (FIG. 10)) | RUVBL1 protein level (1 μM (FIG. 10)) | nuclear foci of GFP-tagged DNMT1 (1 μM (FIG. 10)) | nuclear signal of GFP-tagged NUDT21 (1 μM (FIG. 10)) | nuclear signal of GFP-tagged TPI1 (1 μM (FIG. 10)) | nuclear signal of GFP-tagged transcription factor DR1 (1 μM (FIG. 10)) | localization of GFP-tagged ACLY (24 h treatment, 1 μM (FIG. 10)) | localization of GFP-tagged RPA1 [1] | localization of GFP-tagged RPA2 [1] | localization of GFP-tagged AKAP8 (cell pool, FIG. 6e) | localization of GFP-tagged FUBP3 (cell pool, FIG. 6e) | localization of GFP-tagged MEAF1 (cell pool, FIG. 6e) | localization of GFP-tagged SFPQ (cell pool, FIG. 6e) | nuclear intensity of GFP-tagged UNG (cell pool, FIG. 6e)
1 | CN(Cc1cnc2nc(N)nc(N)c2n1)c1ccc(C(=O)N[C@@H](CCC(=O)O)C(=O)O)cc1 [MTX, methotrexate] | decreases | decreases | disappearance of nuclear DNMT1 foci | gain of nuclear signal | gain of nuclear signal | gain of nuclear signal | increased nuclear localization | formation of nuclear foci | formation of nuclear foci |  |  |  |  | 
2 | Cc1sc2c(c1C)C(c1ccc(Cl)cc1)=N[C@@H](CC(=O)NCCCCCCCCNC(=O)COc1cccc3c1C(=O)N(C1CCC(=O)NC1=O)C3=O)c1nnc(C)n1-2 (some centres unmarked) [dBET6] |  |  |  |  |  |  |  |  |  | gain of nuclear foci | loss of subnuclear localization patterns | loss of subnuclear localization patterns | gain of nuclear foci | loss of nuclear intensity
